Our source for the AC50 values is ChEMBL document CHEMBL5291721, “A preclinical secondary pharmacology resource illuminates target-adverse drug reaction associations of marketed drugs” (Nat Commun, 2023).

Molecules are shown by their SMILES.

Targets include Cannabinoid receptor 1 (Homo sapiens, UniProt P21554); Histamine H2 receptor (Homo sapiens, UniProt P25021); Histamine H1 receptor (Homo sapiens, UniProt P35367).
The target in test [1] is T1, Corticotropin-releasing factor receptor 2 (Homo sapiens, UniProt Q13324).
T1 sequence (Q13324 whole entry): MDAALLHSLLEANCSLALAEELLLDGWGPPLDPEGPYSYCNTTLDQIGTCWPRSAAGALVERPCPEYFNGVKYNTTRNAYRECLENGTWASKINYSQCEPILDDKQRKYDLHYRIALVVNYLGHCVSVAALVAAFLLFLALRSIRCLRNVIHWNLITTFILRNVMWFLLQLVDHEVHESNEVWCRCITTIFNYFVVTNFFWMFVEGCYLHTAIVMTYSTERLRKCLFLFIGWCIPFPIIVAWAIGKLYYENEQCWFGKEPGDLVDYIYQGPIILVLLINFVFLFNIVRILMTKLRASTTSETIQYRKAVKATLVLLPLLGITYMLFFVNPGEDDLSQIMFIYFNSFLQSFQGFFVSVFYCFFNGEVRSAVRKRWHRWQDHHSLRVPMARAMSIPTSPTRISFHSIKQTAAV

The target in test [2] is T2, Gamma-aminobutyric acid receptor subunit alpha-1/alpha-2/beta-2/gamma-2 (Homo sapiens, UniProt P14867+P18507+P47869+P47870). It is filed as functional, cell-based.
T2 sequence (P14867 whole entry): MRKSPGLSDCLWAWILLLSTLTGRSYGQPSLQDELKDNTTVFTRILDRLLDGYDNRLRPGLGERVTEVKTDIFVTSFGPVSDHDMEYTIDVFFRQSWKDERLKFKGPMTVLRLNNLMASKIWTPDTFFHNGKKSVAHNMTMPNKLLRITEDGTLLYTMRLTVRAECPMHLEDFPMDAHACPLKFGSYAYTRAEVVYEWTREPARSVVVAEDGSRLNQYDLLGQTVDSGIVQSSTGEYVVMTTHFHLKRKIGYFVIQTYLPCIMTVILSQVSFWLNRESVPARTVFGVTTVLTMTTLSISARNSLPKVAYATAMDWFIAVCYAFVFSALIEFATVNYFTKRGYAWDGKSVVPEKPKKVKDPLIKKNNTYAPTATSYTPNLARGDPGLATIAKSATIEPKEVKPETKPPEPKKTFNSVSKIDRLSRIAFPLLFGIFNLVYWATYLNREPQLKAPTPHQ
T2 sequence (P47870 whole entry): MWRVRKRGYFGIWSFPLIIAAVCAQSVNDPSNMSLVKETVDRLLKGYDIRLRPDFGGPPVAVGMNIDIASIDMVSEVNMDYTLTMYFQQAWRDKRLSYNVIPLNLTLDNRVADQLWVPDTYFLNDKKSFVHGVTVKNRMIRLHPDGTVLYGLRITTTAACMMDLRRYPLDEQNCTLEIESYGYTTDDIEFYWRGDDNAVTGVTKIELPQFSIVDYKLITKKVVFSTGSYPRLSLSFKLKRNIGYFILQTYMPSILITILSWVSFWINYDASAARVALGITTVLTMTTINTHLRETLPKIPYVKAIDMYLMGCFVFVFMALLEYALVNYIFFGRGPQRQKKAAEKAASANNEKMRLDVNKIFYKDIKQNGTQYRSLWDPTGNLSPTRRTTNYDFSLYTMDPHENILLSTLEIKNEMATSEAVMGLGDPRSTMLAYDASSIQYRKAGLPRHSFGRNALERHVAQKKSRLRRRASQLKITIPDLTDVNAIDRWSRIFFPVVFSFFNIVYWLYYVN
T2 sequence (P18507 whole entry): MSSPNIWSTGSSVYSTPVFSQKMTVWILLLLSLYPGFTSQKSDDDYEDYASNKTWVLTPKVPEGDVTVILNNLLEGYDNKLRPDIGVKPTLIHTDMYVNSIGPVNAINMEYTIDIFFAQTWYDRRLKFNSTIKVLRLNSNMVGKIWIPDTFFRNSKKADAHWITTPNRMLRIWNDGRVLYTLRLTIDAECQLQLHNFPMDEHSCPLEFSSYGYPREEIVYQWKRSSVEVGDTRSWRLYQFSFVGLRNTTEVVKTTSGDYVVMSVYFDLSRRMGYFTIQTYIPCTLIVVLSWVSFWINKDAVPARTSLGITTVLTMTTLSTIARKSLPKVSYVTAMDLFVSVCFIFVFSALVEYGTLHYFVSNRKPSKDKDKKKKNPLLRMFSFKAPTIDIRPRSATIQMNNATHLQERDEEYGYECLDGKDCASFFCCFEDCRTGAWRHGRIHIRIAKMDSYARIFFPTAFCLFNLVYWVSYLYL
T2 sequence (P47869 whole entry): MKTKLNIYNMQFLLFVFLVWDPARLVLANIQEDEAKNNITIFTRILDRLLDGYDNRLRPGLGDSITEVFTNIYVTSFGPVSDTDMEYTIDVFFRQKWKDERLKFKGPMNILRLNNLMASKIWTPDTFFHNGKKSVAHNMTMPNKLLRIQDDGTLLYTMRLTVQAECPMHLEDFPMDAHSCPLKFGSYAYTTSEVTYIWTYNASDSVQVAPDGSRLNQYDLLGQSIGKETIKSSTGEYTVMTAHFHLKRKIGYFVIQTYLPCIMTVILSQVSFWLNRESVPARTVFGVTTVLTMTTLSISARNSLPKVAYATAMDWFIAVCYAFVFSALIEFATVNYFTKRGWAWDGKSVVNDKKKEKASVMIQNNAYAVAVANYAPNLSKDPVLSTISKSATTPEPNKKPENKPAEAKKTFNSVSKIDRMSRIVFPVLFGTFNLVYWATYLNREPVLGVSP
Test [3] has as its target T3, Muscarinic acetylcholine receptor M2 (Homo sapiens, UniProt P08172).
T3 sequence (P08172 whole entry): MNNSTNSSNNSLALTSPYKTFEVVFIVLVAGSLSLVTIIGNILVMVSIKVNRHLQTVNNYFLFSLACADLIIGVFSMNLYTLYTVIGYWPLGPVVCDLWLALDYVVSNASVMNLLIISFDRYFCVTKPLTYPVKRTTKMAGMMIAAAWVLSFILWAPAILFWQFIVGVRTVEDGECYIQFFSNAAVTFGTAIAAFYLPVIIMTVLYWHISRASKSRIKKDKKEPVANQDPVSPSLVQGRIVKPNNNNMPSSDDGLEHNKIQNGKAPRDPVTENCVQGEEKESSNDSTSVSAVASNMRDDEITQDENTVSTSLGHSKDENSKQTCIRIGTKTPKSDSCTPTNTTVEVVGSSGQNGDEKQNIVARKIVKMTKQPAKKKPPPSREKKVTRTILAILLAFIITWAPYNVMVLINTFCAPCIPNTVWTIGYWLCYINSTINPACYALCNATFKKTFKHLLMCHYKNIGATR

In test [4] the target is T4, Muscarinic acetylcholine receptor M1 (Homo sapiens, UniProt P11229).
T4 sequence (P11229 whole entry): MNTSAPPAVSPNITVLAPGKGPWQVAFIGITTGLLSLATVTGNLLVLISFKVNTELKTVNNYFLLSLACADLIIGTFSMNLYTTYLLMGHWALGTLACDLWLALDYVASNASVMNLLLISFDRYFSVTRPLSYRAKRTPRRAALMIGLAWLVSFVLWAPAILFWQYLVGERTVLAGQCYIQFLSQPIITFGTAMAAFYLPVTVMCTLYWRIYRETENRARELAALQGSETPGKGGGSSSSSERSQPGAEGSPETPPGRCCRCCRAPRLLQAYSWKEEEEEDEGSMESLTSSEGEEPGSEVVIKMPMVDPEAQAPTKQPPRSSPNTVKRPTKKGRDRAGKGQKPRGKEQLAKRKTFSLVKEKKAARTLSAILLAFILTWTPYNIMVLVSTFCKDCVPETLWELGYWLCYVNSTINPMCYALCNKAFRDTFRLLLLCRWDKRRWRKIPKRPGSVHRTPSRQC
It is filed as functional.

A further test concerns the target Mu-type opioid receptor (Homo sapiens, UniProt P35372). Put plainly: biochemical. It is filed as functional.
In a further test the target is T5, Adenosine receptor A1 (Homo sapiens, UniProt P30542).
T5 sequence (P30542 whole entry): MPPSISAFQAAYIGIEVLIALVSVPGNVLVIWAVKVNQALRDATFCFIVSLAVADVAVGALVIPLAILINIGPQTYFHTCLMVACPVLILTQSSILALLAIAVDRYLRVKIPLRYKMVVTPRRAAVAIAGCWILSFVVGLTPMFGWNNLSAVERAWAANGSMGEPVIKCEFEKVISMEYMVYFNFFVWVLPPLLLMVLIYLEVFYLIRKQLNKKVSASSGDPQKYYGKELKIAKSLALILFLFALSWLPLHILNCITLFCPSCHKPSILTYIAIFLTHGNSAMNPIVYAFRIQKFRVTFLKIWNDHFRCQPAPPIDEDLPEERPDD

For test [5], the target named is T2, Gamma-aminobutyric acid receptor subunit alpha-1/alpha-2/beta-2/gamma-2. It is filed as protein-complex assay.
Note: assay procedure not described here.

Chain of Histamine H2 receptor (P25021 whole entry): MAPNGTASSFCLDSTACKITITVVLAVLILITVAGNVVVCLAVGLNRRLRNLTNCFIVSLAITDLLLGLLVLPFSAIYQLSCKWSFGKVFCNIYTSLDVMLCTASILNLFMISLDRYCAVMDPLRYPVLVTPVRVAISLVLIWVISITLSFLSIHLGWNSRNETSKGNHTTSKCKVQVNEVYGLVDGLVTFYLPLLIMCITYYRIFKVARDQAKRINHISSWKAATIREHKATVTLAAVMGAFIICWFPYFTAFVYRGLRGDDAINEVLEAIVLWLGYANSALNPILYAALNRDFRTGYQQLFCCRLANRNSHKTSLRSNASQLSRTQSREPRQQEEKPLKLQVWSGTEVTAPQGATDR
Chain of Mu-type opioid receptor (P35372 whole entry): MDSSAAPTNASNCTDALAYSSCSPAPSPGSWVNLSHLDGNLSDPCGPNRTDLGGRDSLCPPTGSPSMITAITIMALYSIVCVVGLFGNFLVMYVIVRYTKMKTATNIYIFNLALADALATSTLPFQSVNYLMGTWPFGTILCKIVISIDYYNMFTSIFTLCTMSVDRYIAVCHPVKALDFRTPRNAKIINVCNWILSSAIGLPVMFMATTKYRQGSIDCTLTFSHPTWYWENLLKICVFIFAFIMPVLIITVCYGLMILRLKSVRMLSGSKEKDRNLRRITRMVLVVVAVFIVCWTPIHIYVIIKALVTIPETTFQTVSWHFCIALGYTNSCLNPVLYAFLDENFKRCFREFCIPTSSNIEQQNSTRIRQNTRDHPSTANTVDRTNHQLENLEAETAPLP
Chain of Cannabinoid receptor 1 (P21554 whole entry): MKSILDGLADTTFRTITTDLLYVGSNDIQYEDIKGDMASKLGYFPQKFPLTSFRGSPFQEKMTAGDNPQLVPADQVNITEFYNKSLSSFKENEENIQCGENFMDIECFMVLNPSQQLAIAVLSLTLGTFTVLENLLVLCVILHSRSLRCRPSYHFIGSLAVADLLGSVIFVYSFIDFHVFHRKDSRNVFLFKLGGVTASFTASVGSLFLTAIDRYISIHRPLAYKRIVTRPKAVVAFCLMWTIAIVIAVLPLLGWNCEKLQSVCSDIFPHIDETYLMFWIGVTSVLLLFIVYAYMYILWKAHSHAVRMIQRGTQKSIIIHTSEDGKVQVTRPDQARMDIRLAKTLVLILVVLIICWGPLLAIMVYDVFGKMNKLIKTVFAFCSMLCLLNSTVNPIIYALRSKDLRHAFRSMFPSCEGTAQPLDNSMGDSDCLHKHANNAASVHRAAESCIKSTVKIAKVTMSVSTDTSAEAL
Chain of Histamine H1 receptor (P35367 whole entry): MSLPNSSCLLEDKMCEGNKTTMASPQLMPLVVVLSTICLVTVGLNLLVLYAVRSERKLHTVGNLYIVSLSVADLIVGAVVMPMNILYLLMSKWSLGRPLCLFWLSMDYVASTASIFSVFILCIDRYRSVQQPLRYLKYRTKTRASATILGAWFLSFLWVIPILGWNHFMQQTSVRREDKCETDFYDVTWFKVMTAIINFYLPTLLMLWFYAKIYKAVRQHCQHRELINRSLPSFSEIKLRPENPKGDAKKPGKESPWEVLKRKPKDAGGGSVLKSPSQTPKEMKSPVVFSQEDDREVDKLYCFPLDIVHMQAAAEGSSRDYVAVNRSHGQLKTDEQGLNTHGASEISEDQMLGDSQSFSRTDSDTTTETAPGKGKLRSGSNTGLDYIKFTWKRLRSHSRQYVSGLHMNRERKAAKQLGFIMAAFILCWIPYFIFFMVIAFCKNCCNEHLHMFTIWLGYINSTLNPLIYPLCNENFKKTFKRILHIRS

As to `CCOc1nc2cccc(C(=O)O)c2n1Cc1ccc(-c2ccccc2-c2nnn[nH]2)cc1`, the concentration at half-maximal activity (AC50) is greater than 10 µM on Cannabinoid receptor 1; greater than 30 µM in test [1]; greater than 30 µM in test [2]; greater than 10 µM on Histamine H2 receptor; greater than 10 µM in test [3].

As for `CCCc1nc2c(C)cc(-c3nc4ccccc4n3C)cc2n1Cc1ccc(-c2ccccc2C(=O)O)cc1`, the AC50 in test [4] is greater than 30 µM; on Cannabinoid receptor 1, greater than 30 µM; in test [1], greater than 30 µM; in test [2], greater than 30 µM; on Histamine H1 receptor, greater than 30 µM; on Histamine H2 receptor it was greater than 10 µM. Further, the concentration at half-maximal activity (AC50) on Mu-type opioid receptor was 3.7 µM; in test [3], greater than 10 µM.

On Adenosine receptor A1, `Nc1c(CC(=O)O)cccc1C(=O)c1ccc(Br)cc1` [BROMFENAC] showed an AC50 of 23.6 µM.

`CC(C)NC(=N)NC(=N)Nc1ccc(Cl)c(Cl)c1` [CHLORPROGUANIL]: the half-maximal activity concentration (AC50) (at Adenosine receptor A1; in test [4]; in [2]; on Histamine H1 receptor; at Mu-type opioid receptor) was greater than 30 µM throughout.

For `C[N+](C)(C)CCOP(=O)(O)OP(=O)([O-])OC[C@H]1O[C@@H](n2ccc(N)nc2=O)[C@H](O)[C@@H]1O` [CITICOLINE], the concentration at half-maximal activity (AC50) at Adenosine receptor A1 is greater than 30 µM; in [4] it was greater than 10 µM; in test [2], greater than 30 µM; on Histamine H1 receptor, greater than 30 µM; at Mu-type opioid receptor, greater than 30 µM.

As for `Cc1nc(Nc2ncc(C(=O)Nc3c(C)cccc3Cl)s2)cc(N2CCN(CCO)CC2)n1` [DASATINIB], the half-maximal activity concentration (AC50) in test [4] is greater than 30 µM; at Cannabinoid receptor 1, greater than 10 µM; on Histamine H1 receptor it was greater than 30 µM; on Histamine H2 receptor, greater than 10 µM; in [3] it was greater than 10 µM.

With `O=C(O)Cc1ccccc1Nc1c(Cl)cccc1Cl` [DICLOFENAC], the AC50 on Cannabinoid receptor 1 was greater than 10 µM; in test [1] it was greater than 30 µM; in test [5] it was greater than 3 µM; at Histamine H2 receptor, greater than 10 µM; in test [3], greater than 10 µM.

As to `CN[C@@H]1[C@H](O[C@H]2[C@H](O[C@H]3[C@H](O)[C@@H](O)[C@H](NC(=N)N)[C@@H](O)[C@@H]3NC(=N)N)O[C@@H](C)[C@]2(O)CO)O[C@@H](CO)[C@H](O)[C@H]1O` [DIHYDROSTREPTOMYCIN], the AC50 on Adenosine receptor A1 was greater than 30 µM.

For the compound `CC[C@H]1OC(=O)[C@H](C)[C@@H](O[C@H]2C[C@@](C)(OC)[C@@H](O)[C@H](C)O2)[C@H](C)[C@@H](O[C@@H]2O[C@H](C)C[C@H](N(C)C)[C@H]2O)[C@](C)(O)C[C@@H](C)[C@@H]2N[C@@H](COCCOC)O[C@H]([C@H]2C)[C@]1(C)O` [DIRITHROMYCIN], on Adenosine receptor A1, the AC50 is greater than 30 µM.

With `O=C(O)Cc1ccccc1Oc1ccc(Cl)cc1Cl` [FENCLOFENAC], the AC50 in [4] was greater than 10 µM; on Cannabinoid receptor 1, greater than 10 µM; in test [1], greater than 30 µM; at Histamine H1 receptor, greater than 10 µM; on Histamine H2 receptor, greater than 10 µM; in [3], greater than 10 µM.

Regarding `Cc1ccc(C)c(OCCCC(C)(C)C(=O)O)c1` [GEMFIBROZIL], the AC50 is greater than 10 µM at Cannabinoid receptor 1, greater than 30 µM in test [1], greater than 10 µM on Histamine H2 receptor and greater than 10 µM in [3].

On Adenosine receptor A1, `C#C[C@]1(O)C=C[C@H]2[C@@H]3CCC4=CC(=O)CC[C@@H]4[C@H]3CC[C@@]21CC` [GESTODENE] yielded an AC50 greater than 30 µM.

In the case of `COc1ccccc1OC1(C)OC(=O)c2ccccc2O1` (stereo not drawn) [GUAIMESAL], at Adenosine receptor A1, the AC50 is greater than 30 µM.

Turning to `C[N+](C)(CCCCCC[N+](C)(C)C1c2ccccc2-c2ccccc21)C1c2ccccc2-c2ccccc21` [HEXAFLUORENIUM], the AC50 at Adenosine receptor A1 is greater than 30 µM.

On to `COc1cc(C(C)=O)ccc1OCCCN1CCC(c2noc3cc(F)ccc23)CC1` [ILOPERIDONE], for which the AC50 on Adenosine receptor A1 was greater than 30 µM; in [4] it was 6.38 µM; in test [2], greater than 30 µM.

With `CC[C@H](C)C(=O)O[C@H]1C[C@@H](C)C=C2C=C[C@H](C)[C@H](CC[C@@H]3C[C@@H](O)CC(=O)O3)[C@H]21` [LOVASTATIN], the AC50 was greater than 10 µM at Cannabinoid receptor 1, greater than 30 µM in [1], greater than 10 µM on Histamine H2 receptor and greater than 10 µM in test [3].

`CC[C@@H](CO)NC(=O)[C@@H]1C=C2c3cccc4c3c(cn4C)C[C@H]2N(C)C1` [METHYSERGIDE]: the AC50 at Cannabinoid receptor 1 was greater than 10 µM; in [1] it was greater than 30 µM; on Histamine H2 receptor, 2.44 µM; in test [3], greater than 10 µM.

With `CC(CN1c2ccccc2Sc2ccccc21)N(C)C` (stereo not drawn) [PROMETHAZINE], the AC50 was greater than 30 µM on Adenosine receptor A1; greater than 10 µM on Cannabinoid receptor 1; greater than 30 µM in test [1]; 0.0536 µM at Histamine H2 receptor; 0.161 µM in test [3].

`CN(CCOc1ccc(CC2SC(=O)NC2=O)cc1)c1ccccn1` (stereo not drawn) [ROSIGLITAZONE]: the concentration at half-maximal activity (AC50) was 16 µM at Cannabinoid receptor 1; greater than 30 µM in [1]; greater than 10 µM on Histamine H2 receptor; greater than 30 µM at Mu-type opioid receptor; greater than 10 µM in test [3].

For the compound `CC(C)C[C@H](NC(=O)[C@@H](O)[C@H](N)Cc1ccccc1)C(=O)O` [UBENIMEX], the AC50 at Adenosine receptor A1 and at Mu-type opioid receptor was greater than 30 µM in each case.

`CC(C)[C@H](N)C(=O)OCCOCn1cnc2c(=O)[nH]c(N)nc21` [VALACYCLOVIR]: the concentration at half-maximal activity (AC50) at Cannabinoid receptor 1 was greater than 10 µM; in test [1], greater than 30 µM; on Histamine H2 receptor, greater than 10 µM; in [3], greater than 10 µM.

Take `O=C1Cc2cc(CCN3CCN(c4nsc5ccccc45)CC3)c(Cl)cc2N1` [ZIPRASIDONE]: the AC50 is greater than 30 µM at Adenosine receptor A1; greater than 10 µM in test [4]; greater than 10 µM on Cannabinoid receptor 1; greater than 30 µM in test [1]; greater than 30 µM in test [5]; 0.596 µM on Histamine H2 receptor. The compound further displayed a concentration at half-maximal activity (AC50) in [3] greater than 10 µM.

Usually AC50 stands for the concentration giving half of the maximal activity seen.
